Experimental data taken from ChEMBL document CHEMBL4020831, “Discovery of GDC-0853: A Potent, Selective, and Noncovalent Bruton's Tyrosine Kinase Inhibitor in Early Clinical Development” (J Med Chem, 2018).
In brackets after ≈: the same amount, converted by molar mass. Activity calls are given as the source filed them. No cut-off for these calls is given here.

Assays:
[1] = physchem; conditions: buffer, pH 7.4
[2] = tested on: Salmonella typhimurium; experiment: Genotoxicity in Salmonella typhimurium TA1535 after 48 to 72 hrs in absence of liver S9 fraction by Ames test; format: toxicity; conditions: salmonella enterica subsp. enterica serovar typhimurium
[3] = molecular target: ERBB4 (Homo sapiens, UniProt Q15303); experiment: Inhibition of recombinant human cytoplasmic GST-tagged ERBB4 expressed in baculovirus at 1 uM by Z'-LYTE assay
[4] = tested on: Rattus norvegicus; experiment: Time at which plasma concentration stays above in vitro IC90 for BTK autophosphorylation at Y223 in rat whole blood in Lewis rat collagen-induced arthritis model at 1 to 16 mg/kg, po qd measured during 24 hrs dosing
[5] = tested on: Salmonella typhimurium; experiment: Genotoxicity in Salmonella typhimurium TA100 after 48 to 72 hrs in absence of liver S9 fraction by Ames test; format: toxicity; conditions: salmonella enterica subsp. enterica serovar typhimurium
[6] = tested on: Rattus norvegicus; experiment: Antiinflammatory activity in Lewis rat collagen-induced arthritis model assessed as reduction in ankle diameter AUC at 0.25 mg/kg, po administered qd for 16 days relative to control; format: functional; conditions: 384 h
[7] = molecular target: T1, Cav1.2 (Homo sapiens, UniProt Q13936); experiment: Inhibition of human Cav1.2 expressed in CHO cells at 1 uM incubated for 3 to 5 mins by Qpatch clamp assay; format: cell-based; conditions: CHO cells expressing human Cav1.2
[8] = tested on: Rattus norvegicus; experiment: Antiinflammatory activity in Lewis rat collagen-induced arthritis model assessed as reduction in ankle pannus at 0.06 to 16 mg/kg, po administered qd for 16 days; format: functional, organism-based
[9] = tested on: Rattus norvegicus; experiment: Time at which plasma concentration stays above IC90 for BTK autophosphorylation at Y223 in rat whole blood in Lewis rat collagen-induced arthritis model at 0.125 to 2 mg/kg, po bid measured during 12 hrs dosing
[10] = molecular target: Cytochrome P450 2C9 (Homo sapiens, UniProt P11712); experiment: Inhibition of CYP2C9 (unknown origin); format: ADME
[11] = molecular target: T1, Cav1.2; experiment: Inhibition of human Cav1.2 expressed in CHO cells at 10 uM incubated for 3 to 5 mins by Qpatch clamp assay; format: cell-based; conditions: CHO cells expressing human Cav1.2
[12] = tested on: Homo sapiens; experiment: Toxicity in human at 250 mg administered bid for 14 days; conditions: in vivo, 336 h
[13] = molecular target: T2, TEC (Homo sapiens, UniProt P42680); experiment: Inhibition of recombinant human cytoplasmic full length His-tagged TEC expressed in baculovirus at 1 uM by Z'-LYTE assay
T2 sequence (P42680 whole entry): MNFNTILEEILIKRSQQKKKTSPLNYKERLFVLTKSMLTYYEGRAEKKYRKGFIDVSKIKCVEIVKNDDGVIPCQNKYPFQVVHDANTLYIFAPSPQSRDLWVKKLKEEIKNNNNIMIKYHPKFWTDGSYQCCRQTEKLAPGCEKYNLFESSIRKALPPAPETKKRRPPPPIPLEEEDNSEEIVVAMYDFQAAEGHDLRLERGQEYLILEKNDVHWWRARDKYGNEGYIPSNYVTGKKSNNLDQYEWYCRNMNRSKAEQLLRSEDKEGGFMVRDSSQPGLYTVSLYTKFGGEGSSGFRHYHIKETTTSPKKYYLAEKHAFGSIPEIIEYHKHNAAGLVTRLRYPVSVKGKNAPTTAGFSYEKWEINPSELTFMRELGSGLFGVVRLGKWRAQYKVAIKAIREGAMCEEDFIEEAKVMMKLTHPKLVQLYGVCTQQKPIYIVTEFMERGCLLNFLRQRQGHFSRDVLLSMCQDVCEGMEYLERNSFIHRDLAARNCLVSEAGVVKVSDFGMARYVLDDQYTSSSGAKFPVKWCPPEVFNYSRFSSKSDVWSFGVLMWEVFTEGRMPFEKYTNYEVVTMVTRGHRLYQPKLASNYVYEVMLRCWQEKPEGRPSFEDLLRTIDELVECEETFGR

[14] = tested on: Salmonella typhimurium; experiment: Genotoxicity in Salmonella typhimurium TA98 after 48 to 72 hrs in presence of liver S9 fraction by Ames test; format: toxicity; conditions: salmonella enterica subsp. enterica serovar typhimurium
[15] = tested on: Rattus norvegicus; experiment: Antiinflammatory activity in Lewis rat collagen-induced arthritis model assessed as reduction in ankle diameter AUC at 0.125 mg/kg, po administered bid for 16 days relative to control; format: functional; conditions: 384 h
[16] = tested on: Rattus norvegicus; experiment: Antiinflammatory activity in Lewis rat collagen-induced arthritis model assessed as reduction in ankle pannus at 0.125 to 2 mg/kg, po administered bid for 16 days; format: functional, organism-based
[17] = Clearance in human hepatocytes at 1 uM incubated up to 60 mins by LC-MS/MS method; format: ADME, cell-based, Hepatocyte
[18] = Aqueous solubility of the compound; format: physicochemical; conditions: buffer
[19] = tested on: Rattus norvegicus; experiment: Antiinflammatory activity in Lewis rat collagen-induced arthritis model assessed as reduction in ankle inflammation at 0.06 to 16 mg/kg, po administered qd for 16 days; format: functional, organism-based
[20] = tested on: Escherichia coli; experiment: Genotoxicity in Escherichia coli WP2 harboring uvrA deletion mutant after 48 to 72 hrs in absence of liver S9 fraction by Ames test; format: toxicity
[21] = Volume of distribution in rat at 0.2 mg/kg, iv or 1 mg/kg, po administered as single dose via cassette dosing; format: ADME, organism-based; conditions: in vivo
[22] = tested on: Rattus norvegicus; experiment: Antiinflammatory activity in Lewis rat collagen-induced arthritis model assessed as reduction in ankle cartilage damage at 0.06 to 16 mg/kg, po administered qd for 16 days; format: functional, organism-based
[23] = molecular target: EGFR (Homo sapiens, UniProt P00533); experiment: Inhibition of recombinant human cytoplasmic GST-tagged EGFR expressed in baculovirus at 1 uM by Z'-LYTE assay
[24] = tested on: Rattus norvegicus; experiment: Time at which plasma concentration stays above in vitro IC50 for BTK autophosphorylation at Y223 in rat whole blood in Lewis rat collagen-induced arthritis modelt at 0.125 to 2 mg/kg, po bid measured during 12 hrs dosing
[25] = tested on: Rattus norvegicus; experiment: Time at which plasma concentration stays above in vitro IC70 for BTK autophosphorylation at Y223 in rat whole blood in Lewis rat collagen-induced arthritis model at 1 to 16 mg/kg, po qd measured during 24 hrs dosing
[26] = tested on: PBL; experiment: Genotoxicity in human PBL assessed as induction of micronuclei at 500 ug/ml in presence of rat liver S9 fraction by cytochalasin B-block method; format: toxicity, cell-based
[27] = molecular target: Cytochrome P450 2D6 (Homo sapiens, UniProt P10635); experiment: Inhibition of CYP2D6 (unknown origin); format: ADME
[28] = Permeability across apical to basolateral in MDCK1 cells; format: ADME, cell-based, Canis lupus familiaris; conditions: dog, MDCK; read-out: permeability
[29] = Oral bioavailability in rat at 1 mg/kg administered as single dose via cassette dosing; format: ADME, organism-based; conditions: in vivo
[30] = molecular target: LTK (Homo sapiens, UniProt P29376); experiment: Inhibition of recombinant human cytoplasmic GST-tagged LTK expressed in baculovirus at 1 uM by Z'-LYTE assay
[31] = tested on: Escherichia coli; experiment: Genotoxicity in Escherichia coli WP2 harboring uvrA deletion mutant after 48 to 72 hrs in presence of liver S9 fraction by Ames test; format: toxicity
[32] = tested on: Rattus norvegicus; experiment: Antiinflammatory activity in Lewis rat collagen-induced arthritis model assessed as reduction in ankle diameter AUC at 1 mg/kg, po administered qd for 16 days relative to control; format: functional; conditions: 384 h
[33] = tested on: Rattus norvegicus; experiment: Antiinflammatory activity in Lewis rat collagen-induced arthritis model assessed as reduction in ankle diameter AUC at 16 mg/kg, po administered qd for 16 days relative to control; format: functional; conditions: 384 h

T1 sequence (Q13936 whole entry): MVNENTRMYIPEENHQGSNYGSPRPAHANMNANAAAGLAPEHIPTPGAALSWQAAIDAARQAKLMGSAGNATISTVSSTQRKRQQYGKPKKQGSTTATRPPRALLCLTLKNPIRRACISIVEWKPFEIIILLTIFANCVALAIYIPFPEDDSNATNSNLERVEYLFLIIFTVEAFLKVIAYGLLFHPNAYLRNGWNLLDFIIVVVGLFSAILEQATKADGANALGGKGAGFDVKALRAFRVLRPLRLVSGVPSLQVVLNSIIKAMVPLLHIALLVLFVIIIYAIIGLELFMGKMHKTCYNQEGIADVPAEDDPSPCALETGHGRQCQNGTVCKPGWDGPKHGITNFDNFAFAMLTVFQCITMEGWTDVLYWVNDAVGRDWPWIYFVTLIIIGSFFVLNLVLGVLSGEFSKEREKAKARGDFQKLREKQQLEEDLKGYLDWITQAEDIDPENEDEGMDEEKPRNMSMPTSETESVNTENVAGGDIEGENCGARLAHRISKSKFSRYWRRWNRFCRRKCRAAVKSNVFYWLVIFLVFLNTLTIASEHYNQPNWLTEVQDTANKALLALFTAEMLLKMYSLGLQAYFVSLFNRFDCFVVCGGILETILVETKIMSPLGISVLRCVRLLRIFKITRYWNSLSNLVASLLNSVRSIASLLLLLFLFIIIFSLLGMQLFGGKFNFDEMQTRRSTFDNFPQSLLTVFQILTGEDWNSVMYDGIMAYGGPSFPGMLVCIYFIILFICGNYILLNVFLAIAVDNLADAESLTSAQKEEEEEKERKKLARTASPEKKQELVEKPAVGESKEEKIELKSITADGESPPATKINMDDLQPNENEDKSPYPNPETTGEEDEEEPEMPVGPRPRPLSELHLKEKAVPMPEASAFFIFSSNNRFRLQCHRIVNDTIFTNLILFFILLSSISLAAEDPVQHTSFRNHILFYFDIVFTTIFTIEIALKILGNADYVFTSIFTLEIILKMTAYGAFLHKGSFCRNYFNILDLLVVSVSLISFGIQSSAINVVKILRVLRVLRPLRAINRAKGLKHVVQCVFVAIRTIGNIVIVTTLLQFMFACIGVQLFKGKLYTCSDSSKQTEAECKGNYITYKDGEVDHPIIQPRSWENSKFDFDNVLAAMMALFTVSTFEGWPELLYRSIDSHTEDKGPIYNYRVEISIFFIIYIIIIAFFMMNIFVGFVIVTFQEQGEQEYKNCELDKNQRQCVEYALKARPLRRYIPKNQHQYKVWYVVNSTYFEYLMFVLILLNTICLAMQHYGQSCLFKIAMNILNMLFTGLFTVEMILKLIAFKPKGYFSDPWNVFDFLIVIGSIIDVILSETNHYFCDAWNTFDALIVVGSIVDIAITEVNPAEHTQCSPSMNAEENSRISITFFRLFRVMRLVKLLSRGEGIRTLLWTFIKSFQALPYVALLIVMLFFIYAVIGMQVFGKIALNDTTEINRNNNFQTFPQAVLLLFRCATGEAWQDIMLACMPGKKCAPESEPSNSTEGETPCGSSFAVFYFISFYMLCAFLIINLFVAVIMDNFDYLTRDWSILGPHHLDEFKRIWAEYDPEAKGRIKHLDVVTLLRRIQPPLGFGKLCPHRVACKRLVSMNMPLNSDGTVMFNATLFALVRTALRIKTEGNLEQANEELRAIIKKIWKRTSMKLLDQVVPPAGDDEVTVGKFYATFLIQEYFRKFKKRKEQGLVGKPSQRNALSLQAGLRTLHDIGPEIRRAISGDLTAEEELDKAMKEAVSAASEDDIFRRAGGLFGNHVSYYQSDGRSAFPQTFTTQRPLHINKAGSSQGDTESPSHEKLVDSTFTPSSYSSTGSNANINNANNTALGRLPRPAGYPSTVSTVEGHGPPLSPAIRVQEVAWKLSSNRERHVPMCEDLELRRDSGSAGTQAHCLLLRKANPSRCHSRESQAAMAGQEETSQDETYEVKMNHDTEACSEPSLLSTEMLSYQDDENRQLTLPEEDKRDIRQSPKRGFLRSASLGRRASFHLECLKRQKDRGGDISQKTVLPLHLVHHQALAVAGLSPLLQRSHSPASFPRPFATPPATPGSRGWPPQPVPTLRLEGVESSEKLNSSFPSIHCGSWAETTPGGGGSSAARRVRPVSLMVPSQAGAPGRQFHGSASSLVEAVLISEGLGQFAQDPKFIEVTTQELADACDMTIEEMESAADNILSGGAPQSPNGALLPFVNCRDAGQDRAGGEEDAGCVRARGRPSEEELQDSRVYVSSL
LTK, sequence (P29376 whole entry): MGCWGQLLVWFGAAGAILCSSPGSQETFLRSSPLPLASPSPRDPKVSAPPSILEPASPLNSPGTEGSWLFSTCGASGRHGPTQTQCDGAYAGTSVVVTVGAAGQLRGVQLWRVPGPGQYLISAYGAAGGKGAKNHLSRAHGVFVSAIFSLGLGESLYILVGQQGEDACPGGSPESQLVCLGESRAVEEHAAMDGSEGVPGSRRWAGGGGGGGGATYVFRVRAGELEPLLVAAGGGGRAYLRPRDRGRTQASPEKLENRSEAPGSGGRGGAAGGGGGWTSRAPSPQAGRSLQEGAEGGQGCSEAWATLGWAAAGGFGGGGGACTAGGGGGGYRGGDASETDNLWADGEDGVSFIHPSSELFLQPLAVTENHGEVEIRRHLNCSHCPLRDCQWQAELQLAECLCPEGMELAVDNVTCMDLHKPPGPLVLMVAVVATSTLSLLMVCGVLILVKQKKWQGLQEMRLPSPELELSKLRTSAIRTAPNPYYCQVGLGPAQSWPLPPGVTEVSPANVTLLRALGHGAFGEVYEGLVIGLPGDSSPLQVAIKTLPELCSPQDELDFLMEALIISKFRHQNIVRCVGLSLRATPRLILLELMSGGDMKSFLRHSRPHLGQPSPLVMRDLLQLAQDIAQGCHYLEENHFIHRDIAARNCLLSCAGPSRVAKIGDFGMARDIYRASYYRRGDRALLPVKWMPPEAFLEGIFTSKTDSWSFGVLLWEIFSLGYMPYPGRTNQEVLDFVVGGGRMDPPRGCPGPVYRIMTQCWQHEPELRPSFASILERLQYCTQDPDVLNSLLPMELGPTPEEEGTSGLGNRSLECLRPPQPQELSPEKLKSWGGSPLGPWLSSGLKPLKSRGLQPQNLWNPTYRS
Cytochrome P450 2D6, sequence (P10635 whole entry): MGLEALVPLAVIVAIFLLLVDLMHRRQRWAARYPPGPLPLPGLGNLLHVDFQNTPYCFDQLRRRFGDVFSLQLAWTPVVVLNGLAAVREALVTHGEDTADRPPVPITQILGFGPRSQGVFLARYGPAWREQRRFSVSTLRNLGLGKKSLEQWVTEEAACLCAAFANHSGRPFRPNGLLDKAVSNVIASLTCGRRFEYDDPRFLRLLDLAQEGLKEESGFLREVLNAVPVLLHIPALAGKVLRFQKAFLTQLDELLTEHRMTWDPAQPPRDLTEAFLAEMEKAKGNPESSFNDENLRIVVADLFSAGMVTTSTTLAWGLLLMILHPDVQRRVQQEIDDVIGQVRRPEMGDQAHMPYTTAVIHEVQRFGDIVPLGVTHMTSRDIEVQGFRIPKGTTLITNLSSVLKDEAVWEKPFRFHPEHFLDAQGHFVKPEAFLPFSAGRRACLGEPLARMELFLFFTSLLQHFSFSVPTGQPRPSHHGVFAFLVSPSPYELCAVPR
EGFR, sequence (P00533 whole entry): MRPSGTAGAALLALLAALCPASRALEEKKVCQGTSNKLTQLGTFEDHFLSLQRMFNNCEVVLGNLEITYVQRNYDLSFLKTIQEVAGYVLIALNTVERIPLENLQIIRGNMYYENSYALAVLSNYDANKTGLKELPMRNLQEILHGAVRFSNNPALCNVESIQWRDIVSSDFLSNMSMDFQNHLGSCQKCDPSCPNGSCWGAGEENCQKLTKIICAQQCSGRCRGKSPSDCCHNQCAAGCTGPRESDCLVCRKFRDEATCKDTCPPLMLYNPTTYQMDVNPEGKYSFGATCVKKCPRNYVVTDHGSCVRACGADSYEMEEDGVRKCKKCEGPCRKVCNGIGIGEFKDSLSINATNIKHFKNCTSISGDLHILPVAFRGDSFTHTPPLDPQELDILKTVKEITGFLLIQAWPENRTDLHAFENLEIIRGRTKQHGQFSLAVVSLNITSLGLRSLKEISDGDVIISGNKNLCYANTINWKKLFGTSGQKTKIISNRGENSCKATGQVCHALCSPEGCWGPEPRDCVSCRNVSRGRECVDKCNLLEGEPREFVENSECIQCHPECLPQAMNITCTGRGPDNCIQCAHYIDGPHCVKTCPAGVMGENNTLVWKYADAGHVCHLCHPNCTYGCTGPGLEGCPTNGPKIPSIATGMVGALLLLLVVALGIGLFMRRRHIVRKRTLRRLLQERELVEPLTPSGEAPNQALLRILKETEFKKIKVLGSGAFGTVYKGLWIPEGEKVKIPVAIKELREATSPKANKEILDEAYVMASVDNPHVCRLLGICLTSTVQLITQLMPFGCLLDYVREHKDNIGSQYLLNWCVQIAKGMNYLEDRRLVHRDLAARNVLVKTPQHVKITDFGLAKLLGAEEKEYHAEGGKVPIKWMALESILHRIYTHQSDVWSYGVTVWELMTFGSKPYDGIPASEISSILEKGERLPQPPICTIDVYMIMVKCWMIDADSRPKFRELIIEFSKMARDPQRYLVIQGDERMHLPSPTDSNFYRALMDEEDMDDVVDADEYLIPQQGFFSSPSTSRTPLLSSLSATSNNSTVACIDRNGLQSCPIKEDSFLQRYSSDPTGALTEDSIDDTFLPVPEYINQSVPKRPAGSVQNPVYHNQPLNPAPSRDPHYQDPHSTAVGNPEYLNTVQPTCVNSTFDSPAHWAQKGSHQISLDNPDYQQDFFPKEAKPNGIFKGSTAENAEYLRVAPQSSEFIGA

Q: What does the source list for `C[C@H]1CN(C2COC2)CCN1c1ccc(Nc2cc(-c3ccnc(N4CCn5c(cc6c5CC(C)(C)C6)C4=O)c3CO)cn(C)c2=O)nc1` [FENEBRUTINIB]?
A: logD [1]: 1.6; Activity [2]: Non-Toxic; inhibition at 1 µM [3]: 1%; Time [4]: 12 h; Activity [5]: Non-Toxic; inhibition in vivo at 0.25 mg/kg [6]: 26%; inhibition at 1 µM [7]: 1.5%; Activity [8]: Active; Time [9]: 6 h; IC50 [10]: > 5 µM; inhibition at 10 µM [11]: 3.8%; Activity [12]: Non-Toxic; inhibition at 1 µM [13]: 23%; Activity [14]: Non-Toxic; inhibition in vivo at 0.125 mg/kg [15]: 50%; Activity [16]: Active; CLhep predicted at 1 µM [17]: 7.6 mL/min/kg; solubility [18]: 3 µg/mL (≈ 4.51 µM); Activity [19]: Active; Activity [20]: Non-Toxic; Vd [21]: 5.42 L/kg; Activity [22]: Active; inhibition at 1 µM [23]: -7%; Time [24]: 6 h; Time [25]: 12 h; Activity [26]: Non-Toxic; IC50 [27]: > 5 µM; Papp A→B [28]: 15.1 ×10⁻⁶ cm/s; bioavailability [29]: 65.1%; inhibition at 1 µM [30]: -1%; Activity [31]: Non-Toxic; inhibition in vivo at 1 mg/kg [32]: 71%; inhibition in vivo at 16 mg/kg [33]: 99%
